Holding throughout (test): c-Kit assay: Ba/F3 KIT mutant viability (Cell Titer-Glo, 72 hours)
What all share (type): cell-based
In general terms: In ATP-based viability assays light output follows the ATP content of the culture.

One experiment deals with T1, BAF3 FL KIT EX11DEL (Homo sapiens, UniProt P10721, cells depend on it, form not given).
T1 construct: "BAF3 FL KIT EX11DEL"
Particulars: viability after 72 hours. As to the method:
(§1) KIT cDNAs were synthesized by GenScript and cloned into the pLVX-IRES-Puro vector (Clontech). Viral particles were produced by transfecting pLVX-IRES-puro vectors containing KIT mutant genes into HEK293 cells (Invitrogen) using the Trans-Lentiviral ORF Packaging Kit (Thermo Scientific). 48 hours post-transfection, virus-containing supernatants were harvested and incubated for another 48-72 hours with parental Ba/F3 cells (DSMZ) in the presence of 10 ng/mL […] (R&D Systems). Transduced Ba/F3 cells were then selected by IL-3 withdrawal and puromycin (0.5-1 μg/mL, Invitrogen).
(§2) Cell lines (i.e., EX11DEL, EX11DEL/D816H, EX11DEL/T670I, and EX11DEL/V654A) were plated into 384 well plates using RPMI 1640 supplemented with 10% FBS at densities that produced linear growth and incubated at 37° C. in 5% (v/v) CO2. Cells were treated with eight concentrations of compound over a 4-fold dilution (10 μM to 0.61 nM) and viability was assessed using Cell Titer-Glo assay (Promega) after 72 hours. Data were plotted as percent viability relative to vehicle-treated cells. Dose-responses curves were generated and used to calculate IC50 values.

Experiment [1] concerns the target T2, BAF3 FL KIT EX11DEL/D816H (Homo sapiens, UniProt P10721, D816H, cells depend on it, form not given).
T2 construct: "BAF3 FL KIT EX11DEL/ D816H"
The conditions noted are these: viability after 72 hours. On the procedure:
as §1, §2

Experiment [2] deals with T3, BAF3 FL KIT EX11DEL/T6701 (Homo sapiens, UniProt P10721, T670I, cells depend on it, form not given).
T3 construct: "BAF3 FL KIT EX11DEL/ T6701"
T3 sequence (P10721 with tags, fused parts or gaps DEL557-558/T670I, form open): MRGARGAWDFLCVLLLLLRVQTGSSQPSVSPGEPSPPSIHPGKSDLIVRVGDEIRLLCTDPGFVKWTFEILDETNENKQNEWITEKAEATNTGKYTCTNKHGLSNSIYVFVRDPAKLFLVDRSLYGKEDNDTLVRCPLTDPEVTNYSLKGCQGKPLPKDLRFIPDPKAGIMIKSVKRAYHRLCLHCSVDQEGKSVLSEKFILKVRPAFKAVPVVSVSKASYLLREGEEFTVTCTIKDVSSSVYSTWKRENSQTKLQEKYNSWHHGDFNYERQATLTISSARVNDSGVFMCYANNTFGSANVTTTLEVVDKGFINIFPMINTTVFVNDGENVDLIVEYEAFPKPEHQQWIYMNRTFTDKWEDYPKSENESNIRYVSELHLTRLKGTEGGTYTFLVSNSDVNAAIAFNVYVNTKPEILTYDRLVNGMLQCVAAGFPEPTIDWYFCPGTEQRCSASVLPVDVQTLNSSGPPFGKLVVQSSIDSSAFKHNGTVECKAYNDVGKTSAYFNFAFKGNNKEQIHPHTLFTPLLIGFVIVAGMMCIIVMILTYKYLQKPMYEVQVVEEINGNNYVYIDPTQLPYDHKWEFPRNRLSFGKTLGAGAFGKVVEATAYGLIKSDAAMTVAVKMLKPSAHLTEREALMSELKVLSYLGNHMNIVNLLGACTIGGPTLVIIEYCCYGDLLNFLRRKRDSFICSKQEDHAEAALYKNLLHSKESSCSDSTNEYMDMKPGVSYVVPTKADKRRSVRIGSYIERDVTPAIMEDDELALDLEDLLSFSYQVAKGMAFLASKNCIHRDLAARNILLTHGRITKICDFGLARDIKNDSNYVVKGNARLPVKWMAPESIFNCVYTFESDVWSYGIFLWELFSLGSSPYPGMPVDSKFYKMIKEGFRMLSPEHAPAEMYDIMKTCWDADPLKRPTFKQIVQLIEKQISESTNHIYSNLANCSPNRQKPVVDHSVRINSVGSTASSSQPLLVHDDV
Particulars: EX11DEL/T6701, viability after 72 hours. On the procedure:
as §1, §2

For experiment [3], the target named is T4, BAF3 FL KIT EX11DEL/V654A (Homo sapiens, UniProt P10721, V654A, cells depend on it, form not given).
T4 construct: "BAF3 FL KIT EX11DEL/ V654A"
T4 sequence (P10721 with tags, fused parts or gaps DEL557-558/V654A, form open): as the sequence (P10721 with tags, fused parts or gaps DEL557-558/T670I, form open) above, with V652A, I668T counted along it
Particulars: viability after 72 hours. On the procedure: as §1, §2

T1 sequence (P10721 with tags, fused parts or gaps DEL557-558): as the sequence (P10721 with tags, fused parts or gaps DEL557-558/T670I, form open) above, with I668T counted along it
T2 sequence (P10721 with tags, fused parts or gaps DEL557-558/D816H, form open): as the sequence (P10721 with tags, fused parts or gaps DEL557-558/T670I, form open) above, with I668T, D814H counted along it

Regarding `Cc1ccc(C(=O)Nc2cc(C(F)(F)F)ccn2)cc1C#Cc1ccc2c(c1)ncn2-c1cnn(C2CCOCC2)c1` [Compound I-33, 4-methyl-3-((1-(1-(tetrahydro-2H-pyran-4-yl)-1H-pyrazol-4-yl)-1H-benzo[d]imidazol-5-yl)ethynyl)-N-(4-(trifluoromethyl)pyridin-2-yl)benzamide], the concentration for 50% growth inhibition (GI50) at BAF3 FL KIT EX11DEL was below 10 nM; in experiment [1], 10 to 50 nM; in experiment [2], below 10 nM; in experiment [3], 10 to 50 nM.

Regarding `COCCn1cnc2cc(C#Cc3cc(C(=O)Nc4cc(C(F)(F)F)ccn4)ccc3C)ccc21` [Compound I-4, 3-((1-(2-methoxyethyl)-1H-benzo[d]imidazol-5-yl)ethynyl)-4-methyl-N-(4-(trifluoromethyl)pyridin-2-yl)benzamide], the GI50 at BAF3 FL KIT EX11DEL was below 10 nM; in experiment [1], 100 to 10000 nM; in experiment [2], 50 to 100 nM; in experiment [3] it was 50 to 100 nM.

As to `Cc1ccc(C(=O)Nc2cc(C(F)(F)F)ccn2)cc1C#Cc1ccc2nc(N)[nH]c2c1` [Compound I-10, 3-((2-amino-1H-benzo[d]imidazol-6-yl)ethynyl)-4-methyl-N-(4-(trifluoromethyl)pyridin-2-yl)benzamide], the GI50 on BAF3 FL KIT EX11DEL was in the range of 10 to 50 nM; in experiment [1], 100 to 10000 nM; in experiment [2], 100 to 10000 nM; in experiment [3], 100 to 10000 nM.

Take `Cn1cc(-n2cnc3cc(C#Cc4cccc(C(=O)Nc5cc(C(F)(F)F)ccn5)c4)ccc32)cn1` [Compound I-50, 3-((1-(1-methyl-1H-pyrazol-4-yl)-1H-benzo[d]imidazol-5-yl)ethynyl)-N-(4-(trifluoromethyl)pyridin-2-yl)benzamide]: the GI50 on BAF3 FL KIT EX11DEL is below 10 nM; in experiment [1], 100 to 10000 nM; in experiment [2], below 10 nM; in experiment [3], 50 to 100 nM.

As to `Cc1ccc(C(=O)Nc2ccc(N3CCN(C)CC3)c(C(F)(F)F)c2)cc1C#Cc1ccc2c(c1)ncn2C` [Compound I-22, 4-methyl-3-((1-methyl-1H-benzo[d]imidazol-5-yl)ethynyl)-N-(4-(4-methylpiperazin-1-yl)-3-(trifluoromethyl)phenyl)benzamide], the GI50 (on BAF3 FL KIT EX11DEL; in experiment [1]; in experiment [2]; in experiment [3]) was 100 to 10000 nM throughout.

Regarding `Cc1ccc(NC(=O)c2cc(C(F)(F)F)ccn2)cc1C#Cc1ccc2c(c1)ncn2-c1cnn(C)c1` [Compound I-44, N-(4-methyl-3-((1-(1-methyl-1H-pyrazol-4-yl)-1H-benzo[d]imidazol-5-yl)ethynyl)phenyl)-4-(trifluoromethyl)picolinamide], the GI50 on BAF3 FL KIT EX11DEL was below 10 nM; in experiment [1], 10 to 50 nM; in experiment [2], 10 to 50 nM; in experiment [3], 10 to 50 nM.

Take `Cc1ccc(NC(=O)c2cc(C(F)(F)F)ccn2)cc1C#Cc1ccc2c(c1)ncn2-c1cnn(CCO)c1` [Compound I-39, N-(3-((1-(1-(2-hydroxyethyl)-1H-pyrazol-4-yl)-1H-benzo[d]imidazol-5-yl)ethynyl)-4-methylphenyl)-4-(trifluoromethyl)picolinamide]: the GI50 at BAF3 FL KIT EX11DEL was below 10 nM; in experiment [1], 10 to 50 nM; in experiment [2] it was below 10 nM; in experiment [3], 10 to 50 nM.

In the case of `Cc1ccc(NC(=O)c2ccc(CN3CCCC3)c(C(F)(F)F)c2)cc1C#Cc1ccc2c(c1)ncn2-c1cnn(C)c1` [Compound I-47, N-(4-methyl-3-((1-(1-methyl-1H-pyrazol-4-yl)-1H-benzo[d]imidazol-5-yl)ethynyl)phenyl)-4-(pyrrolidin-1-ylmethyl)-3-(trifluoromethyl)benzamide], the GI50 at BAF3 FL KIT EX11DEL lay within 10 to 50 nM; in experiment [1] it was 100 to 10000 nM; in experiment [2], 50 to 100 nM; in experiment [3], 100 to 10000 nM.

Take `Cc1ccc(C(=O)Nc2cc(C(F)(F)F)ccn2)cc1C#Cc1ccc2c(c1)ncn2-c1cnn(C)c1` [Compound I-17, 4-methyl-3-((1-(1-methyl-1H-pyrazol-4-yl)-1H-benzo[d]imidazol-5-yl)ethynyl)-N-(4-(trifluoromethyl)pyridin-2-yl)benzamide]: the GI50 lay within 10 to 50 nM on BAF3 FL KIT EX11DEL, 50 to 100 nM in experiment [1], 10 to 50 nM in experiment [2] and 10 to 50 nM in experiment [3].

For the molecule `COCCn1cc(-n2cnc3cc(C#Cc4cc(NC(=O)c5cc(C(F)(F)F)ccn5)ccc4C)ccc32)cn1` [Compound I-38, N-(3-((1-(1-(2-methoxyethyl)-1H-pyrazol-4-yl)-1H-benzo[d]imidazol-5-yl)ethynyl)-4-methylphenyl)-4-(trifluoromethyl)picolinamide], the GI50 is below 10 nM at BAF3 FL KIT EX11DEL, 50 to 100 nM in experiment [1], 10 to 50 nM in experiment [2] and 10 to 50 nM in experiment [3].

Consider `Cc1ccc(C(=O)Nc2cc(C(F)(F)F)ccn2)cc1C#Cc1ccc2[nH]cnc2c1` [Compound I-2, 3-((1H-benzo[d]imidazol-5-yl)ethynyl)-4-methyl-N-(4-(trifluoromethyl)pyridin-2-yl)benzamide], for which the 50% growth inhibitory concentration (GI50) is below 10 nM on BAF3 FL KIT EX11DEL, 50 to 100 nM in experiment [1], 10 to 50 nM in experiment [2] and 10 to 50 nM in experiment [3].

With `Cc1ccc(C(=O)Nc2cc(C(F)(F)F)ccn2)cc1C#Cc1ccc2c(c1)ncn2C1CCN(C)CC1` [Compound I-20, 4-methyl-3-((1-(1-methylpiperidin-4-yl)-1H-benzo[d]imidazol-5-yl)ethynyl)-N-(4-(trifluoromethyl)pyridin-2-yl)benzamide], the GI50 at BAF3 FL KIT EX11DEL lay within 10 to 50 nM; in experiment [1] it was 100 to 10000 nM; in experiment [2] it was 100 to 10000 nM; in experiment [3] it was 100 to 10000 nM.

With `Cc1ccc(C(=O)Nc2cc(C(F)(F)F)ccn2)cc1C#Cc1ccc2c(c1)ncn2-c1cnn(C2CCN(C=O)CC2)c1` [Compound I-25, 3-((1-(1-(1-formylpiperidin-4-yl)-1H-pyrazol-4-yl)-1H-benzo[d]imidazol-5-yl)ethynyl)-4-methyl-N-(4-(trifluoromethyl)pyridin-2-yl)benzamide], the GI50 was below 10 nM on BAF3 FL KIT EX11DEL, 10 to 50 nM in experiment [1], below 10 nM in experiment [2] and 10 to 50 nM in experiment [3].

As for `Cc1ccc(C(=O)Nc2cc(C(F)(F)F)ccn2)cc1C#Cc1ccc2c(c1)ncn2C1CC1` [Compound I-13, 3-((1-cyclopropyl-1H-benzo[d]imidazol-5-yl)ethynyl)-4-methyl-N-(4-(trifluoromethyl)pyridin-2-yl)benzamide], the GI50 is 10 to 50 nM at BAF3 FL KIT EX11DEL, 100 to 10000 nM in experiment [1], 100 to 10000 nM in experiment [2] and 100 to 10000 nM in experiment [3].

In the case of `Cc1ccc(C(=O)Nc2cc(C(F)(F)F)ccn2)cc1C#Cc1ccc2c(c1)ncn2-c1cnn(C2CCNCC2)c1` [Compound I-26, 4-methyl-3-((1-(1-(piperidin-4-yl)-1H-pyrazol-4-yl)-1H-benzo[d]imidazol-5-yl)ethynyl)-N-(4-(trifluoromethyl)pyridin-2-yl)benzamide], the GI50 at BAF3 FL KIT EX11DEL was below 10 nM; in experiment [1] it was 10 to 50 nM; in experiment [2], 10 to 50 nM; in experiment [3], 10 to 50 nM.

With `Cc1ccc(C(=O)Nc2ccc(CN3CCCC3)c(C(F)(F)F)c2)cc1C#Cc1ccc2c(c1)ncn2-c1cnn(C)c1` [Compound I-29, 4-methyl-3-((1-(1-methyl-1H-pyrazol-4-yl)-1H-benzo[d]imidazol-5-yl)ethynyl)-N-(4-(pyrrolidin-1-ylmethyl)-3-(trifluoromethyl)phenyl)benzamide], the GI50 on BAF3 FL KIT EX11DEL was in the range of 10 to 50 nM; in experiment [1], 10 to 50 nM; in experiment [2] it was 10 to 50 nM; in experiment [3], 50 to 100 nM.

Consider `CCN(CC)CCn1cc(-n2cnc3cc(C#Cc4cc(NC(=O)c5cc(C(F)(F)F)ccn5)ccc4C)ccc32)cn1` [Compound I-42, N-(3-((1-(1-(2-(diethylamino)ethyl)-1H-pyrazol-4-yl)-1H-benzo[d]imidazol-5-yl)ethynyl)-4-methylphenyl)-4-(trifluoromethyl)picolinamide], for which the GI50 at BAF3 FL KIT EX11DEL lay in the range of 10 to 50 nM; in experiment [1], 100 to 10000 nM; in experiment [2] it was 10 to 50 nM; in experiment [3] it was 50 to 100 nM.

As for `Cc1ccc(NC(=O)c2cc(C(F)(F)F)ccn2)cc1C#Cc1ccc2c(c1)ncn2-c1cnn(CCN(C)C)c1` [Compound I-41, N-(3-((1-(1-(2-(dimethylamino)ethyl)-1H-pyrazol-4-yl)-1H-benzo[d]imidazol-5-yl)ethynyl)-4-methylphenyl)-4-(trifluoromethyl)picolinamide], the GI50 at BAF3 FL KIT EX11DEL was below 10 nM; in experiment [1], 100 to 10000 nM; in experiment [2], 10 to 50 nM; in experiment [3], 50 to 100 nM.

In the case of `Cc1ccc(NC(=O)c2cc(C(F)(F)F)ccn2)cc1C#Cc1ccc2c(c1)ncn2-c1cn(C)nn1` [Compound I-36, N-(4-methyl-3-((1-(1-methyl-1H-1,2,3-triazol-4-yl)-1H-benzo[d]imidazol-5-yl)ethynyl)phenyl)-4-(trifluoromethyl)picolinamide], the GI50 at BAF3 FL KIT EX11DEL is below 10 nM; in experiment [1], 10 to 50 nM; in experiment [2], 10 to 50 nM; in experiment [3], 10 to 50 nM.

The term GI50 denotes the concentration that inhibits growth by half.

Values taken from patent publication US11117883B2 (Ariad Pharmaceuticals, Inc., priority 2016, dated 2021).
